From the NIST ThermoML archive (doi:10.1016/j.fluid.2009.04.009)
± gives the expanded uncertainty stated by the source.

Experiment: xn = mol fraction of the nth substance listed
Conditions: Liquid, Single crystal variable path ultrasonic interferometer operating at 2 MHz

## CO [methanol] + CN(C)C=O
303 K, Frequency=2 MHz / Mass density=771.9 kg/m3, x2 = 0
  speed of sound: 1089 ± 0.5 m/s
308 K, Frequency=2 MHz / Mass density=764.7 kg/m3, x2 = 0
  speed of sound: 1069.6 ± 0.4 m/s
313 K, Frequency=2 MHz / Mass density=757.4 kg/m3, x2 = 0
  speed of sound: 1057.2 ± 0.4 m/s
318 K, Frequency=2 MHz / Mass density=750 kg/m3, x2 = 0
  speed of sound: 1033.2 ± 0.5 m/s
323 K, Frequency=2 MHz / Mass density=718.6 kg/m3, x2 = 0
  speed of sound: 1008 ± 0.3 m/s

## CN(C)C=O [dimethylformamide] + CO
303 K, Frequency=2 MHz / Mass density=801.17 kg/m3, x1 = 0.4
  speed of sound: 1201.2 ± 0.4 m/s
303 K, Frequency=2 MHz / Mass density=818.7 kg/m3, x1 = 0.2
  speed of sound: 1133.8 ± 0.3 m/s
303 K, Frequency=2 MHz / Mass density=853.8 kg/m3, x1 = 0.6
  speed of sound: 1249.2 ± 0.3 m/s
303 K, Frequency=2 MHz / Mass density=888.88 kg/m3, x1 = 0.8
  speed of sound: 1339.4 ± 0.5 m/s
303 K, Frequency=2 MHz / Mass density=953.21 kg/m3, x1 = 1
  speed of sound: 1469.8 ± 0.8 m/s
308 K, Frequency=2 MHz / Mass density=794.11 kg/m3, x1 = 0.4
  speed of sound: 1187.4 ± 0.4 m/s
308 K, Frequency=2 MHz / Mass density=811.76 kg/m3, x1 = 0.2
  speed of sound: 1126.8 ± 0.3 m/s
308 K, Frequency=2 MHz / Mass density=852.94 kg/m3, x1 = 0.6
  speed of sound: 1243.4 ± 0.4 m/s
308 K, Frequency=2 MHz / Mass density=888.23 kg/m3, x1 = 0.8
  speed of sound: 1320 ± 0.3 m/s
308 K, Frequency=2 MHz / Mass density=952.94 kg/m3, x1 = 1
  speed of sound: 1433.2 ± 0.6 m/s
313 K, Frequency=2 MHz / Mass density=786.98 kg/m3, x1 = 0.4
  speed of sound: 1169.2 ± 0.4 m/s
313 K, Frequency=2 MHz / Mass density=798.81 kg/m3, x1 = 0.2
  speed of sound: 1110.8 ± 0.4 m/s
313 K, Frequency=2 MHz / Mass density=846.15 kg/m3, x1 = 0.6
  speed of sound: 1219.4 ± 0.5 m/s
313 K, Frequency=2 MHz / Mass density=881.65 kg/m3, x1 = 0.8
  speed of sound: 1313.2 ± 0.4 m/s
313 K, Frequency=2 MHz / Mass density=952.66 kg/m3, x1 = 1
  speed of sound: 1418 ± 0.4 m/s
318 K, Frequency=2 MHz / Mass density=773.8 kg/m3, x1 = 0.4
  speed of sound: 1152 ± 0.4 m/s
318 K, Frequency=2 MHz / Mass density=785.71 kg/m3, x1 = 0.2
  speed of sound: 1097.7 ± 0.2 m/s
318 K, Frequency=2 MHz / Mass density=833.33 kg/m3, x1 = 0.6
  speed of sound: 1208 ± 0.3 m/s
318 K, Frequency=2 MHz / Mass density=875 kg/m3, x1 = 0.8
  speed of sound: 1275.4 ± 0.5 m/s
318 K, Frequency=2 MHz / Mass density=952.38 kg/m3, x1 = 1
  speed of sound: 1402.2 ± 0.5 m/s
323 K, Frequency=2 MHz / Mass density=754.49 kg/m3, x1 = 0.4
  speed of sound: 1136 ± 0.3 m/s
323 K, Frequency=2 MHz / Mass density=778.44 kg/m3, x1 = 0.2
  speed of sound: 1095.4 ± 0.3 m/s
323 K, Frequency=2 MHz / Mass density=803.35 kg/m3, x1 = 0.6
  speed of sound: 1189 ± 0.3 m/s
323 K, Frequency=2 MHz / Mass density=868.26 kg/m3, x1 = 0.8
  speed of sound: 1257.2 ± 0.4 m/s
323 K, Frequency=2 MHz / Mass density=952.09 kg/m3, x1 = 1
  speed of sound: 1374.8 ± 0.6 m/s
